Measurements published in patent US12370161B2, “Composition for treating atopy or pruritus comprising N-acetyl or N-acyl amino acid” (STEMDR INC., priority 2017, dated 2025).
Entries after “also recorded” stand apart in the source; their conditions may differ.

What was measured:
[1] = test system: atopic dermatitis-induced Balb/c mouse; test: SCORAD clinical skin score, DNFB-induced atopic dermatitis in Balb/c mouse; format: in vivo; set-up: key to Mouse 1 Sum / Mean (of Sum, SCORAD) / Mouse 2 Sum / Mouse 3 Sum: sum of symptom grades, each 0 (none) to 3 (severe); conditions: for skin-soothing and atopic dermatitis-treating effect (SCORAD, Table 1, FIG. 2A): Balb/c atopic dermatitis model, 0.1% topical, P<0.05 versus DNFB group; for apparent degree of dermatitis (back skin images, FIG. 2B): Balb/c, treated for 7 days, day 29; for Mouse 1 Erythema / Mouse 1 Abrasion / Mouse 1 Dryness / Mouse 1 Edema / Mouse 1 Eschar / Mouse 1 Lichenification / Mouse 1 Sum / Mouse 2 Abrasion / Mouse 2 Dryness / Mouse 2 Edema / Mouse 2 Erythema / Mouse 2 Eschar / Mouse 2 Lichenification / Mouse 2 Sum / Mouse 3 Abrasion / Mouse 3 Dryness / Mouse 3 Edema / Mouse 3 Erythema / Mouse 3 Eschar / Mouse 3 Lichenification / Mouse 3 Sum / Mean (of Sum, SCORAD): DNFB Balb/c; for Mouse 1 Erythema: 0.1% in PBS, 200 μL on back skin daily day 22-28, grade 0-3 (0 no symptom, 1 mild, 2 moderate, 3 severe); for Mouse 1 Abrasion / Mouse 1 Dryness / Mouse 1 Edema / Mouse 1 Eschar / Mouse 1 Lichenification / Mouse 1 Sum / Mouse 2 Abrasion / Mouse 2 Dryness / Mouse 2 Edema / Mouse 2 Erythema / Mouse 2 Eschar / Mouse 2 Lichenification / Mouse 2 Sum / Mouse 3 Abrasion / Mouse 3 Dryness / Mouse 3 Edema / Mouse 3 Erythema / Mouse 3 Eschar / Mouse 3 Lichenification / Mouse 3 Sum / Mean (of Sum, SCORAD): 0.1% topical day 22-28; for Mouse 1 Abrasion / Mouse 1 Dryness / Mouse 1 Edema / Mouse 1 Eschar / Mouse 1 Lichenification / Mouse 2 Abrasion / Mouse 2 Dryness / Mouse 2 Edema / Mouse 2 Erythema / Mouse 2 Eschar / Mouse 2 Lichenification / Mouse 3 Abrasion / Mouse 3 Dryness / Mouse 3 Edema / Mouse 3 Erythema / Mouse 3 Eschar / Mouse 3 Lichenification: grade 0-3; for Mouse 1 Sum / Mouse 2 Sum / Mouse 3 Sum: overall dermatitis score, sum of individual scores; for Mean (of Sum, SCORAD): mean of 3 mice
Summary of the method: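 Mice sensitized with 0.35% DNFB on shaved back, then challenged with 0.25% DNFB on days 6–27; 0.1% N-acetyl/N-acylamino acid in PBS applied topically daily days 22–28, 12 h apart from DNFB. Blinded SCORAD: six symptoms each graded 0–3, summed.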

[2] = test system: atopic dermatitis-induced Nc/Nga mouse; test: SCORAD clinical skin score, DNFB-induced atopic dermatitis in Nc/Nga mouse; format: in vivo; conditions: for atopic dermatitis-treating effect (SCORAD, FIG. 3A) / dermatitis-treating effect of L-, L/D- and D-form (FIG. 6): Nc/Nga atopic dermatitis model; for atopic dermatitis-treating effect (SCORAD, FIG. 3A): 0.1% topical; for dermatitis-treating effect of L-, L/D- and D-form (FIG. 6): 0.1%; for effect in Nc/Nga model (back skin images, FIG. 3B): treated for 7 days, day 22
Summary of the method: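 Nc/Nga mice sensitized with 0.35% DNFB on shaved back, then challenged with 0.15% DNFB every other day; 0.1% N-acetyl/N-acylamino acid in PBS applied daily to back skin days 15–21, 12 h apart from DNFB. Blinded SCORAD: edema, erythema, eschar, dryness, abrasion, lichenification each graded 0–3, summed.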

[3] = test system: atopic dermatitis-induced Nc/Nga mouse; test: Hematoxylin/eosin staining of back skin tissue, epidermal and dermal thickness; format: in vivo; conditions: 5 μm slices
Source text: After extracting back skin tissues of the atopic dermatitis-induced and drug-treated Nc/Nga mice of Example 2, the tissues were fixed with an Accustain formalin-free fixative solution and then prepared into paraffin blocks. The paraffin blocks were sliced to a thickness of 5 μm and the change in the thickness of the epidermal and dermal layers was observed by staining with hematoxylin/eosin.

[4] = test system: IgE; test: Serum IgE level by ELISA, Balb/c; format: in vivo, mouse; conditions: atopy-induced Balb/c mice
Protocol: (§1) After treatment with the test substance, the mice were sacrificed and blood was taken from the heart. After isolating serum from the blood, IgE level was measured. Specifically, after attaching antibodies diluted in a buffer solution onto a 96-well plate and incubating overnight at 4° C., experiment was conducted using an IgE ELISA kit (BD Biosciences, San Diego, CA) according to the provided manual. The quantity of the IgE protein was determined by measuring absorbance at 450 nm using a microplate reader.

[5] = test system: IgE; test: Serum IgE level by ELISA, Nc/Nga; format: in vivo, mouse; conditions: atopy-induced Nc/Nga mice
Protocol: as §1

[6] = test system: IL4; test: IL4 mRNA in skin tissue by quantitative real-time PCR, Balb/c; format: in vivo, mouse; conditions: atopy-induced Balb/c mice, normalized to β-actin
Protocol: (§2) After isolating total RNA from the atopy-induced skin tissue using 500 μL of Trizol (Life Technologies, USA) according to the manufacturer's protocol and synthesizing cDNA using the Superscript III reverse transcriptase (Life Technologies, USA), real-time PCR was conducted by reacting with the primers of IL4 and interferon γ to be analyzed. The real-time PCR was conducted on a StepOne Plus PCR cycler (Applied Biosystems) using SYBR Green (Applied Biosystems, Foster City, CA). The mRNA expression data were analyzed by the ΔΔCT method and were normalized to β-actin for gene detection. The primers necessary for the real-time PCR were purchased from Qiagen (USA). […] IL4 is known to induce TH2 response and interferon γ is known to induce TH1 response.

[7] = test system: interferon γ; test: Interferon γ mRNA in skin tissue by quantitative real-time PCR, Balb/c; format: in vivo, mouse; conditions: atopy-induced Balb/c mice, normalized to β-actin
Protocol: as §2

[8] = test system: IL4; test: IL4 mRNA in skin tissue by quantitative real-time PCR, Nc/Nga; format: in vivo, mouse; conditions: atopy-induced Nc/Nga mice, normalized to β-actin
Protocol: as §2

[9] = test system: interferon γ; test: Interferon γ mRNA in skin tissue by quantitative real-time PCR, Nc/Nga; format: in vivo, mouse; conditions: atopy-induced Nc/Nga mice, normalized to β-actin
Protocol: as §2

[10] = test system: pruritus caused by atopic contact dermatitis; test: Pruritus inhibition test, pruritus induced with DNFB; format: in vivo, mouse; conditions: 0.1% in physiological saline applied once onto right ear, pruritus measured for 1 hour
Protocol: In order to investigate whether L-form, LID-form and D-form N-acetylalanine, N-acetylarginine, N-acetylthreonine and N-acetyltryptophan inhibit pruritus caused by atopic contact dermatitis, 20 μL of 0.1% 2,4-dinitrofluorobenzene (DNFB) solution and 0.1% N-acetylamino acid dissolved in physiological saline were applied once onto the right ear 10 minutes after the final treatment (day 27) with 2,4-dinitrofluorobenzene (DNFB) (Physiological saline was applied to a negative control group), and then pruritus was measured for 1 hour. FIG. 7 compares the pruritus-relieving effect of L-form N-acetylalanine, N-acetylthreonine, N-acetylarginine and N-acetyltryptophan with D/L-form and D-form N-acetylalanine and N-acetyltryptophan at 0.1% after the induction of pruritus with DNFB.

[11] = listed as L-form N-acetylalanine
[12] = listed as L-form N-acetyltryptophan

SMILES	skin-soothing and atopic dermatitis-treating effect (SCORAD, Table 1, FIG. 2A) [1]	apparent degree of dermatitis (back skin images, FIG. 2B) [1]	Mouse 1 Erythema [1]	Mouse 1 Abrasion [1]	Mouse 1 Dryness [1]	Mouse 1 Edema [1]	Mouse 1 Eschar [1]	Mouse 1 Lichenification [1]	Mouse 1 Sum [1]	Mouse 2 Abrasion [1]	Mouse 2 Dryness [1]	Mouse 2 Edema [1]	Mouse 2 Erythema [1]	Mouse 2 Eschar [1]	Mouse 2 Lichenification [1]	Mouse 2 Sum [1]	Mouse 3 Abrasion [1]	Mouse 3 Dryness [1]	Mouse 3 Edema [1]	Mouse 3 Erythema [1]	further results
CC(=O)N[C@@H](C)C(=O)O [N-acetyl-L-alanine]	significant skin-soothing and atopic dermatitis-treating effects; also recorded: significant atopic dermatitis-treating effect	decreased remarkably	1	1	2	1	1	0	6	1	0	1	1	1	0	4	1	0	1	1	Mouse 3 Eschar [1]: 1; Mouse 3 Lichenification [1]: 1; Mouse 3 Sum [1]: 5; Mean (of Sum, SCORAD) [1]: 5; atopic dermatitis-treating effect (SCORAD, FIG. 3A) [2]: showed atopic dermatitis-treating effect; dermatitis-treating effect of L-, L/D- and D-form (FIG. 6) [2, 11]: remarkable effect; effect in Nc/Nga model (back skin images, FIG. 3B) [2]: remarkable effect; thickness of the epidermal and dermal layers (FIG. 3C) [3]: significantly decreased; serum IgE level (FIG. 4A) [4]: significant decrease; serum IgE level (FIG. 4B) [5]: significant decrease; level of IL4 in the skin tissue (FIG. 5A) [6]: significantly decreased; level of interferon γ in the skin tissue (FIG. 5A) [7]: significantly decreased; level of IL4 in the skin tissue (FIG. 5B) [8]: significantly decreased; level of interferon γ in the skin tissue (FIG. 5B) [9]: significantly decreased; pruritus-relieving effect (FIG. 7) [10, 11]: significantly inhibited pruritus
CC(=O)N[C@@H](Cc1c[nH]c2ccccc12)C(=O)O [N-acetyl-L-tryptophan]	significant skin-soothing and atopic dermatitis-treating effects; also recorded: significant atopic dermatitis-treating effect	decreased remarkably	1	1	0	1	1	1	5	0	1	1	0	1	0	3	2	0	0	0	Mouse 3 Eschar [1]: 2; Mouse 3 Lichenification [1]: 0; Mouse 3 Sum [1]: 4; Mean (of Sum, SCORAD) [1]: 4; atopic dermatitis-treating effect (SCORAD, FIG. 3A) [2]: showed atopic dermatitis-treating effect; dermatitis-treating effect of L-, L/D- and D-form (FIG. 6) [2, 12]: remarkable effect; effect in Nc/Nga model (back skin images, FIG. 3B) [2]: remarkable effect; thickness of the epidermal and dermal layers (FIG. 3C) [3]: significantly decreased; serum IgE level (FIG. 4A) [4]: significant decrease; serum IgE level (FIG. 4B) [5]: significant decrease; level of IL4 in the skin tissue (FIG. 5A) [6]: significantly decreased; level of interferon γ in the skin tissue (FIG. 5A) [7]: significantly decreased; level of IL4 in the skin tissue (FIG. 5B) [8]: significantly decreased; level of interferon γ in the skin tissue (FIG. 5B) [9]: significantly decreased; pruritus-relieving effect (FIG. 7) [10, 12]: significantly inhibited pruritus
